Laboratory results published in PubChem BioAssay (NCI).
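Cells were grown in 96-well plates and exposed to each compound for 48 hours at five concentrations; endpoints were interpolated linearly between bracketing concentrations, or set to the highest concentration if not reached. Here, GI50 denotes the concentration required for 50% inhibition of growth. TGI: concentration producing complete growth inhibition.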

Tests used:
Experiment in all cases: NCI tumour cell line growth inhibition, 48 h
786-0 renal = tested on: 786-0 renal
A498 renal = tested on: A498 renal
A549 NSCLC = tested on: A549 NSCLC
ACHN renal = tested on: ACHN renal
BT-549 breast = tested on: BT-549 breast
CAKI-1 renal = tested on: CAKI-1 renal
CCRF-CEM leukemia = tested on: CCRF-CEM leukemia
COLO 205 colon = tested on: COLO 205 colon
DU-145 prostate = tested on: DU-145 prostate
HCC-2998 colon = tested on: HCC-2998 colon
HCT-116 colon = tested on: HCT-116 colon
HCT-15 colon = tested on: HCT-15 colon
HL-60(TB) leukemia = tested on: HL-60(TB) leukemia
HOP-62 NSCLC = tested on: HOP-62 NSCLC
HOP-92 NSCLC = tested on: HOP-92 NSCLC
HS 578T breast = tested on: HS 578T breast
HT29 colon = tested on: HT29 colon
IGROV1 ovarian = tested on: IGROV1 ovarian
K-562 leukemia = tested on: K-562 leukemia
KM12 colon = tested on: KM12 colon
LOX IMVI melanoma = tested on: LOX IMVI melanoma
M14 melanoma = tested on: M14 melanoma
MALME-3M melanoma = tested on: MALME-3M melanoma
MCF7 breast = tested on: MCF7 breast
MDA-MB-231 breast = tested on: MDA-MB-231 breast
MDA-MB-435 = tested on: MDA-MB-435
MOLT-4 leukemia = tested on: MOLT-4 leukemia
NCI-H226 lung = tested on: NCI-H226 lung
NCI-H23 lung = tested on: NCI-H23 lung
NCI-H460 lung = tested on: NCI-H460 lung
NCI-H522 lung = tested on: NCI-H522 lung
NCI/ADR-RES ovarian = tested on: NCI/ADR-RES ovarian
OVCAR-3 ovarian = tested on: OVCAR-3 ovarian
OVCAR-4 ovarian = tested on: OVCAR-4 ovarian
OVCAR-5 ovarian = tested on: OVCAR-5 ovarian
OVCAR-8 ovarian = tested on: OVCAR-8 ovarian
PC-3 prostate = tested on: PC-3 prostate
RPMI-8226 leukemia = tested on: RPMI-8226 leukemia
RXF 393 renal = tested on: RXF 393 renal
SF-268 CNS = tested on: SF-268 CNS
SF-295 CNS = tested on: SF-295 CNS
SF-539 CNS = tested on: SF-539 CNS
SK-MEL-2 melanoma = tested on: SK-MEL-2 melanoma
SK-MEL-28 melanoma = tested on: SK-MEL-28 melanoma
SK-MEL-5 melanoma = tested on: SK-MEL-5 melanoma
SK-OV-3 ovarian = tested on: SK-OV-3 ovarian
SN12C renal = tested on: SN12C renal
SNB-19 CNS = tested on: SNB-19 CNS
SNB-75 CNS = tested on: SNB-75 CNS
SR leukemia = tested on: SR leukemia
SW-620 colon = tested on: SW-620 colon
TK-10 renal = tested on: TK-10 renal
U251 CNS = tested on: U251 CNS
UACC-257 melanoma = tested on: UACC-257 melanoma
UACC-62 melanoma = tested on: UACC-62 melanoma
UO-31 renal = tested on: UO-31 renal
EKVX NSCLC = tested on: EKVX NSCLC
T-47D breast = tested on: T-47D breast

`COc1ccc(-c2cn[nH]c2-c2cc(OC)c3c(c2)OCCO3)cc1` was tested, and the GI50 (786-0 renal) was 369 nM, the TGI (786-0 renal) was 26800 nM and the GI50 (A498 renal) was 29.8 nM. The TGI (A498 renal) was 419 nM, the GI50 (A549 NSCLC) was 102 nM and the TGI (A549 NSCLC) was 46000 nM. It also gave a GI50 (ACHN renal) of 1260 nM, a TGI (ACHN renal) of over 100000 nM and a GI50 (BT-549 breast) of 494 nM. For the same compound, the TGI (BT-549 breast) was 22000 nM, the GI50 (CAKI-1 renal) was 143 nM and the TGI (CAKI-1 renal) was 58400 nM. The GI50 (CCRF-CEM leukemia) was 298 nM, the TGI (CCRF-CEM leukemia) was over 73900 nM and the GI50 (COLO 205 colon) was 59.1 nM. It also gave a TGI (COLO 205 colon) of 585 nM, a GI50 (DU-145 prostate) of 312 nM and a TGI (DU-145 prostate) of 16900 nM. The GI50 (HCC-2998 colon) was 673 nM, the TGI (HCC-2998 colon) was 20400 nM and the GI50 (HCT-116 colon) was 70.8 nM. For the same compound, the TGI (HCT-116 colon) was 13900 nM, the GI50 (HCT-15 colon) was 63.5 nM and the TGI (HCT-15 colon) was 22400 nM. It also gave a GI50 (HL-60(TB) leukemia) of 81.5 nM, a TGI (HL-60(TB) leukemia) of 13000 nM and a GI50 (HOP-62 NSCLC) of 264 nM. For the same compound, the TGI (HOP-62 NSCLC) was 47600 nM, the GI50 (HOP-92 NSCLC) was 1040 nM and the TGI (HOP-92 NSCLC) was 28100 nM. The GI50 (HS 578T breast) was 231 nM, the TGI (HS 578T breast) was 34400 nM and the GI50 (HT29 colon) was 42.1 nM. For the same compound, the TGI (HT29 colon) was 11200 nM, the GI50 (IGROV1 ovarian) was 384 nM and the TGI (IGROV1 ovarian) was 39600 nM. It also gave a GI50 (K-562 leukemia) of 39.1 nM, a TGI (K-562 leukemia) of over 100000 nM and a GI50 (KM12 colon) of 50.2 nM. It also gave a TGI (KM12 colon) of 7850 nM, a GI50 (LOX IMVI melanoma) of 581 nM and a TGI (LOX IMVI melanoma) of 15200 nM. The GI50 (M14 melanoma) was 69.4 nM, the TGI (M14 melanoma) was 21100 nM and the GI50 (MALME-3M melanoma) was 20900 nM. It also gave a TGI (MALME-3M melanoma) of 58700 nM, a GI50 (MCF7 breast) of 61 nM and a TGI (MCF7 breast) of 32600 nM. It also gave a GI50 (MDA-MB-231 breast) of 179 nM, a TGI (MDA-MB-231 breast) of 10900 nM and a GI50 (MDA-MB-435) of 26.6 nM. For the same compound, the TGI (MDA-MB-435) was 97.7 nM, the GI50 (MOLT-4 leukemia) was 706 nM and the TGI (MOLT-4 leukemia) was 34300 nM. It also gave a GI50 (NCI-H226 lung) of 2070 nM, a TGI (NCI-H226 lung) of 23400 nM and a GI50 (NCI-H23 lung) of 599 nM. The TGI (NCI-H23 lung) was over 100000 nM, the GI50 (NCI-H460 lung) was 68.6 nM and the TGI (NCI-H460 lung) was 11400 nM. For the same compound, the GI50 (NCI-H522 lung) was 24.3 nM, the TGI (NCI-H522 lung) was 164 nM and the GI50 (NCI/ADR-RES ovarian) was 54.9 nM. The TGI (NCI/ADR-RES ovarian) was 41500 nM, the GI50 (OVCAR-3 ovarian) was 42.3 nM and the TGI (OVCAR-3 ovarian) was 300 nM. It also gave a GI50 (OVCAR-4 ovarian) of 1030 nM, a TGI (OVCAR-4 ovarian) of over 100000 nM and a GI50 (OVCAR-5 ovarian) of 683 nM. It also gave a TGI (OVCAR-5 ovarian) of over 100000 nM, a GI50 (OVCAR-8 ovarian) of 363 nM and a TGI (OVCAR-8 ovarian) of 21000 nM. The GI50 (PC-3 prostate) was 128 nM, the TGI (PC-3 prostate) was 39000 nM and the GI50 (RPMI-8226 leukemia) was 373 nM. It also gave a TGI (RPMI-8226 leukemia) of 25200 nM, a GI50 (RXF 393 renal) of 219 nM and a TGI (RXF 393 renal) of 2770 nM. It also gave a GI50 (SF-268 CNS) of 1030 nM, a TGI (SF-268 CNS) of over 74200 nM and a GI50 (SF-295 CNS) of 73.5 nM. For the same compound, the TGI (SF-295 CNS) was 12100 nM, the GI50 (SF-539 CNS) was 124 nM and the TGI (SF-539 CNS) was 441 nM. For the same compound, the GI50 (SK-MEL-2 melanoma) was 68.5 nM, the TGI (SK-MEL-2 melanoma) was 16100 nM and the GI50 (SK-MEL-28 melanoma) was 2120 nM. It also gave a TGI (SK-MEL-28 melanoma) of 46300 nM, a GI50 (SK-MEL-5 melanoma) of 71.7 nM and a TGI (SK-MEL-5 melanoma) of 8080 nM. For the same compound, the GI50 (SK-OV-3 ovarian) was 400 nM, the TGI (SK-OV-3 ovarian) was 35500 nM and the GI50 (SN12C renal) was 1280 nM. It also gave a TGI (SN12C renal) of 73700 nM, a GI50 (SNB-19 CNS) of 330 nM and a TGI (SNB-19 CNS) of over 100000 nM. The GI50 (SNB-75 CNS) was 122 nM, the TGI (SNB-75 CNS) was 738 nM and the GI50 (SR leukemia) was 47.3 nM. The TGI (SR leukemia) was 14200 nM, the GI50 (SW-620 colon) was 50.6 nM and the TGI (SW-620 colon) was over 72500 nM. It also gave a GI50 (TK-10 renal) of 457 nM, a TGI (TK-10 renal) of 48400 nM and a GI50 (U251 CNS) of 159 nM. For the same compound, the TGI (U251 CNS) was 12200 nM, the GI50 (UACC-257 melanoma) was 14800 nM and the TGI (UACC-257 melanoma) was 55400 nM. The GI50 (UACC-62 melanoma) was 75.8 nM, the TGI (UACC-62 melanoma) was 17600 nM and the GI50 (UO-31 renal) was 734 nM. The TGI (UO-31 renal) was 42000 nM.
In the case of `Nc1ccc2[nH]c(C(=O)N3CC(CCl)c4c3cc(N)c3ccccc43)cc2c1` (stereo not given), the TGI (A498 renal) is reported as 28.8 nM, the TGI (ACHN renal) is reported as 10.3 nM and the TGI (BT-549 breast) is reported as under 24.4 nM. The TGI (CCRF-CEM leukemia) was over 100000 nM, the TGI (COLO 205 colon) was 22.3 nM and the TGI (DU-145 prostate) was under 10 nM. For the same compound, the TGI (EKVX NSCLC) was 31.3 nM, the TGI (HCC-2998 colon) was under 10 nM and the TGI (HCT-116 colon) was 1090 nM. The TGI (HCT-15 colon) was 1280 nM, the TGI (HL-60(TB) leukemia) was 16.2 nM and the TGI (HOP-62 NSCLC) was 55.6 nM. It also gave a TGI (HS 578T breast) of 57 nM, a TGI (HT29 colon) of under 22.9 nM and a TGI (K-562 leukemia) of over 100000 nM. The TGI (KM12 colon) was 71.4 nM, the TGI (LOX IMVI melanoma) was 14.5 nM and the TGI (MCF7 breast) was 153 nM. The TGI (MDA-MB-435) was 25 nM, the TGI (NCI-H226 lung) was under 10 nM and the TGI (NCI-H23 lung) was under 10 nM. It also gave a TGI (NCI-H460 lung) of under 10 nM, a TGI (NCI/ADR-RES ovarian) of under 10 nM and a TGI (OVCAR-3 ovarian) of over 100000 nM. For the same compound, the TGI (OVCAR-4 ovarian) was under 10 nM, the TGI (OVCAR-5 ovarian) was over 100000 nM and the TGI (OVCAR-8 ovarian) was 23.6 nM. It also gave a TGI (RPMI-8226 leukemia) of under 25.5 nM, a TGI (SF-268 CNS) of under 10 nM and a TGI (SF-295 CNS) of under 10 nM. It also gave a TGI (SK-MEL-5 melanoma) of under 41.4 nM, a TGI (SK-OV-3 ovarian) of 1210 nM and a TGI (SN12C renal) of 32.5 nM. For the same compound, the TGI (SNB-19 CNS) was under 48.9 nM, the TGI (SW-620 colon) was 124 nM and the TGI (T-47D breast) was 455 nM. It also gave a TGI (U251 CNS) of 147 nM and a TGI (UACC-62 melanoma) of 10.1 nM.
